Data taken from patent US6632799B2, “Injectable ready-to-use solutions containing an antitumor anthracycline glycoside” (Pharmacia & Upjohn Company, priority 1985, dated 2003).
Structures can show the parent of a compound that is named as a salt.

Assays:
[1] = Shelf-life (t 90%) forecast of doxorubicin.HCl 2 mg/ml solution in 5% dextrose adjusted to pH 3.0; assay type: physicochemical; settings: for Kobs × 10^3: observed
Description: Applying the equation, the rate constants for the pseudo-first order reactions at 4° C., 8° C., and 15° C. and 27° C. were calculated, together with the expected t90% at these temperatures.

[2] = Shelf-life (t 90%) forecast of doxorubicin.HCl 2 mg/ml 0.9% sodium chloride solution adjusted to pH 3.0; assay type: physicochemical; settings: for Kobs × 10^3: observed
Description: The Arrhenius equation for the degradation process was calculated from the Kobs obtained from the different temperatures taken in account for the testing (table 13).

[3] = 5% dextrose pH 3.0, 35° C., 4 days
[4] = 5% dextrose pH 3.0, 35° C., 8 days
[5] = 5% dextrose pH 3.0, 35° C., 14 days
[6] = 5% dextrose pH 3.0, 35° C., 17 days
[7] = 5% dextrose pH 3.0, 35° C., 21 days
[8] = 5% dextrose pH 3.0, 45° C., 4 days
[9] = 5% dextrose pH 3.0, 45° C., 8 days
[10] = 5% dextrose pH 3.0, 45° C., 14 days
[11] = 5% dextrose pH 3.0, 45° C., 21 days
[12] = 5% dextrose pH 3.0, 55° C., 17 days
[13] = 5% dextrose pH 3.0, 55° C., 21 days
[14] = 5% dextrose pH 3.0, 60° C., 2 days
[15] = 5% dextrose pH 3.0, 60° C., 4 days
[16] = 5% dextrose pH 3.0, 60° C., 6 days
[17] = 5% dextrose pH 3.0, 60° C., 8 days
[18] = 0.9% NaCl pH 3.0, 27° C., Arrhenius
[19] = 0.9% sodium chloride pH 3.0, 35° C., 0 days
[20] = 0.9% sodium chloride pH 3.0, 35° C., 8 days
[21] = 0.9% sodium chloride pH 3.0, 35° C., 14 days
[22] = 0.9% sodium chloride pH 3.0, 35° C., 21 days
[23] = 0.9% sodium chloride pH 3.0, 35° C., 28 days
[24] = 0.9% sodium chloride pH 3.0, 45° C., 0 days
[25] = 0.9% sodium chloride pH 3.0, 45° C., 4 days
[26] = 0.9% sodium chloride pH 3.0, 45° C., 8 days
[27] = 0.9% sodium chloride pH 3.0, 45° C., 21 days
[28] = 0.9% sodium chloride pH 3.0, 55° C., 0 days
[29] = 0.9% sodium chloride pH 3.0, 55° C., 11 days
[30] = 0.9% sodium chloride pH 3.0, 60° C., 0 days
[31] = 0.9% sodium chloride pH 3.0, 60° C., 1 day
[32] = 0.9% sodium chloride pH 3.0, 60° C., 3 days

In the case of `COc1cccc2c1C(=O)c1c(O)c3c(c(O)c1C2=O)C[C@@](O)(C(=O)CO)C[C@@H]3O[C@H]1C[C@H](N)[C@H](O)[C@H](C)O1` [Doxorubicin.HCl, doxorubicin hydrochloride], the “commercially meaningful shelf-life (t90% forecasts)” value ([1]; 2 mg/ml pH 3.0 5% dextrose solution) is reported as “only if the product is stored in a refrigerator”, the t90% ([1]; 5% dextrose pH 3.0, 27° C., Arrhenius) is reported as 82 days and the Doxorubicin.HCl assay ([1]; 5% dextrose pH 3.0, 35° C., 0 days) is reported as 2.114 mg/mL. It also gave a Doxorubicin.HCl assay [1, 3] of 2.044 mg/mL, a pH [1, 3] of 2.98 and a Doxorubicin.HCl assay [1, 4] of 2.034 mg/mL. It also gave a pH [1, 4] of 2.94, a Doxorubicin.HCl assay [1, 5] of 2.015 mg/mL and a pH [1, 5] of 2.95. For the same compound, the Doxorubicin.HCl assay [1, 6] was 1.934 mg/mL, the pH [1, 6] was 2.90 and the Doxorubicin.HCl assay [1, 7] was 1.859 mg/mL. For the same compound, the pH [1, 7] was 2.94, the “Kobs × 10^3” value ([1]; 5% dextrose pH 3.0, 35° C.) was 4.190 1/days and the Doxorubicin.HCl assay ([1]; 5% dextrose pH 3.0, 45° C., 0 days) was 2.114 mg/mL. The Doxorubicin.HCl assay [1, 8] was 1.940 mg/mL, the pH [1, 8] was 2.97 and the Doxorubicin.HCl assay [1, 9] was 1.870 mg/mL. The pH [1, 9] was 2.98, the Doxorubicin.HCl assay [1, 10] was 1.684 mg/mL and the pH [1, 10] was 2.95. It also gave a pH ([1]; 5% dextrose pH 3.0, 45° C., 17 days) of 2.96, a Doxorubicin.HCl assay [1, 11] of 1.410 mg/mL and a pH [1, 11] of 2.96. For the same compound, the “Kobs × 10^3” value ([1]; 5% dextrose pH 3.0, 45° C.) was 14.55 1/days, the Doxorubicin.HCl assay ([1]; 5% dextrose pH 3.0, 55° C., 0 days) was 2.114 mg/mL and the pH ([1]; 5% dextrose pH 3.0, 55° C., 4 days) was 2.95. For the same compound, the pH ([1]; 5% dextrose pH 3.0, 55° C., 8 days) was 2.92, the pH ([1]; 5% dextrose pH 3.0, 55° C., 14 days) was 2.99 and the Doxorubicin.HCl assay [1, 12] was 0.957 mg/mL. For the same compound, the pH [1, 12] was 2.91, the Doxorubicin.HCl assay [1, 13] was 0.796 mg/mL and the pH [1, 13] was 2.95. The “Kobs × 10^3” value ([1]; 5% dextrose pH 3.0, 55° C.) was 58.11 1/days, the Doxorubicin.HCl assay ([1]; 5% dextrose pH 3.0, 60° C., 0 days) was 2.114 mg/mL and the Doxorubicin.HCl assay [1, 14] was 1.752 mg/mL. The pH [1, 14] was 2.96, the Doxorubicin.HCl assay [1, 15] was 1.393 mg/mL and the pH [1, 15] was 2.98. The Doxorubicin.HCl assay [1, 16] was 1.176 mg/mL, the pH [1, 16] was 2.96 and the Doxorubicin.HCl assay [1, 17] was 0.925 mg/mL. The pH [1, 17] was 2.97, the “Kobs × 10^3” value ([1]; 5% dextrose pH 3.0, 60° C.) was 102.6 1/days and the “commercially meaningful shelf-life (t90% forecasts)” value ([2]; 2 mg/ml pH 3.0 in 0.9% sodium chloride) was “only if the product is stored in a refrigerator”. The “K × 10^3 calculated” value ([2]; 0.9% NaCl pH 3.0, 4° C., Arrhenius) was 0.017 1/days, the “K × 10^3 calculated” value ([2]; 0.9% NaCl pH 3.0, 8° C., Arrhenius) was 0.037 1/days and the “K × 10^3 calculated” value ([2]; 0.9% NaCl pH 3.0, 15° C., Arrhenius) was 0.137 1/days. For the same compound, the “K × 10^3 calculated” value [2, 18] was 1.112 1/days, the t90% [2, 18] was 94 days and the “Kobs × 10^3” value ([2]; 0.9% NaCl pH 3.0, 35° C.) was 3.89 1/days. For the same compound, the “Kobs × 10^3” value ([2]; 0.9% NaCl pH 3.0, 45° C.) was 21.61 1/days, the “Kobs × 10^3” value ([2]; 0.9% NaCl pH 3.0, 55° C.) was 75.90 1/days and the “Kobs × 10^3” value ([2]; 0.9% NaCl pH 3.0, 60° C.) was 164.90 1/days. The Doxorubicin.HCl assay [2, 19] was 2.061 mg/mL, the pH [2, 19] was 3.05 and the Doxorubicin.HCl assay [2, 20] was 2.045 mg/mL. The pH [2, 20] was 2.98, the Doxorubicin.HCl assay [2, 21] was 1.946 mg/mL and the pH [2, 21] was 2.92. It also gave a Doxorubicin.HCl assay [2, 22] of 1.932 mg/mL, a pH [2, 22] of 2.92 and a Doxorubicin.HCl assay [2, 23] of 1.852 mg/mL. It also gave a pH [2, 23] of 2.98, a Doxorubicin.HCl assay [2, 24] of 2.061 mg/mL and a pH [2, 24] of 3.05. For the same compound, the Doxorubicin.HCl assay [2, 25] was 1.996 mg/mL, the pH [2, 25] was 2.98 and the Doxorubicin.HCl assay [2, 26] was 1.724 mg/mL. The pH [2, 26] was 2.97, the pH ([2]; 0.9% sodium chloride pH 3.0, 45° C., 14 days) was 2.98 and the Doxorubicin.HCl assay [2, 27] was 1.344 mg/mL. The pH [2, 27] was 2.93, the Doxorubicin.HCl assay [2, 28] was 2.061 mg/mL and the pH [2, 28] was 3.05. The pH ([2]; 0.9% sodium chloride pH 3.0, 55° C., 4 days) was 2.90, the pH ([2]; 0.9% sodium chloride pH 3.0, 55° C., 8 days) was 2.97 and the Doxorubicin.HCl assay [2, 29] was 0.900 mg/mL. The pH [2, 29] was 2.95, the Doxorubicin.HCl assay [2, 30] was 2.061 mg/mL and the pH [2, 30] was 3.05. The Doxorubicin.HCl assay [2, 31] was 1.742 mg/mL, the pH [2, 31] was 2.97 and the pH ([2]; 0.9% sodium chloride pH 3.0, 60° C., 2 days) was 2.96. For the same compound, the Doxorubicin.HCl assay [2, 32] was 1.290 mg/mL, the pH [2, 32] was 2.98 and the pH ([2]; 0.9% sodium chloride pH 3.0, 60° C., 4 days) was 2.96.
